Data taken from patent publication US11203613B2, “Peptidomimetic proteasome inhibitors” (CORNELL UNIVERSITY, priority 2017, dated 2021).
Several values for one entry are separate records, joined by “and”; a condition that tells them apart may be missing. Equal values may be shown once. Read-outs that look alike come from different tables or passages of the source.

How the values were obtained:
[1] = target: Human Constitutive (Hu C-20S) β5 Active Subunit (Homo sapiens, UniProt P28074); assay: IC50 determination, human constitutive 20S proteasome β5c (suc-LLVY-AMC hydrolysis); type: biochemical; conditions: Table 2; several values in a cell are repeat determinations; read-out: Hu c-20S IC50
[2] = target: Mtb20SOG (Mycobacterium tuberculosis, UniProt P9WHT9); assay: biochemical
[3] = Table 2, several values in a cell are repeat determinations

Mtb20SOG, sequence (P9WHT9 58-291): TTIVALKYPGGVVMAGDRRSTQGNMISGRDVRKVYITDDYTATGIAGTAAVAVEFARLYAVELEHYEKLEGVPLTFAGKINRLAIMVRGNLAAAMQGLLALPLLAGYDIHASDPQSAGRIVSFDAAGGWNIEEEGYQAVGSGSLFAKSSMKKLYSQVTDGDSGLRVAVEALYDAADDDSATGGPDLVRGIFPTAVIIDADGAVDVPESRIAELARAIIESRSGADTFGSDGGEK

Structure (SMILES) | IC50 [1] | IC50 [2] | IC50 [2, 3]
CC(NC(=O)C(CC(=O)N1CCCCC1C)NC(=O)C1CC1c1ccccc1)c1nc2c(F)cccc2[nH]1 (stereo not shown) [CF-503363] | 8000 nM | 50.7 nM | 
CC(C)CCC(=O)N[C@@H](CC(=O)N1CCCCC1C(C)C)C(=O)N[C@@H](C)c1ncc(-c2ccc(F)cc2F)[nH]1 (stereo partly shown) [CF-503218] | 3180 nM |  | 136 nM and 168 nM
CC[C@H]1CCCCN1C(=O)C[C@H](Nc1nc2cc(C)ccc2o1)C(=O)N[C@@H](C)c1nc2c(F)cccc2[nH]1 [CF-503357] | 1900 nM | 260 nM | 
C[C@H](NC(=O)[C@H](CC(=O)N1CCCC[C@@H]1C)NS(=O)(=O)CCC1CC1)c1ncc(-c2ccc(F)cc2F)[nH]1 [CF-503206] | 6160 nM |  | 506 nM
CC[C@H]1CCCCN1C(=O)C[C@H](NC(=O)CCC(C)(C)C)C(=O)N[C@@H](C)c1nc2c(F)cccc2[nH]1 [CF-503222] | 11200 nM and 12300 nM and 11700 nM |  | 15 nM and 29 nM and 41 nM
C[C@H](NC(=O)[C@H](CC(=O)N1CCC[C@@H]1C)NC(=O)CCC(C)(C)C)c1nc2ccccc2[nH]1 [CF-503163] | 16500 nM | 3500 nM | 
CC[C@H]1CCCCN1C(=O)C[C@H](Nc1nc(C(C)C)no1)C(=O)NCc1nc2c(F)cccc2[nH]1 [CF-503417] | 3600 nM and 2990 nM |  | 1350 nM and 1770 nM
CC(NC(=O)C(CC(=O)N1CCCCC1C)NC(=O)OCc1ccccc1)c1nc2c(F)cccc2[nH]1 (stereo not shown) [CF-503462] | 14800 nM | 120 nM | 
CC[C@H]1CCCCN1C(=O)C[C@H](NC(=O)CCC(C)C)C(=O)N[C@@H](C)c1nc2c(F)cccc2[nH]1 [CF-503223] | 10600 nM and 10200 nM | 28 nM and 33 nM | 
C[C@H](NC(=O)[C@H](CC(=O)N1CCCC[C@@H]1C)NC(=O)CC1CC1)c1ncc(Cc2ccccc2)[nH]1 [CF-503136] | 10400 nM |  | 925 nM
CC(C)CCS(=O)(=O)N[C@@H](CC(=O)N1CCC[C@@H]1c1ccccc1)C(=O)N[C@@H](C)c1nc2ccccc2[nH]1 [CF-503183] | 10100 nM and 9700 nM and 10000 nM |  | 224 nM and 242 nM and 124 nM
